# Measured values as given in paper PMC7381538, “Broad spectrum antibiotic-degrading metallo-β-lactamases are phylogenetically diverse” (Protein & Cell, 2020).
# Assays:
# [1] = molecular target: SPR-1trunc (Serratia proteamaculans, UniProt Z9GZR1QZ95); assay type: biochemical; settings: beta-lactam substrate and mode only in supplement
# [2] = molecular target: SER-1trunc; assay type: biochemical; settings: beta-lactam substrate and mode only in supplement
# Chain of SPR-1trunc (Z9GZR1QZ95 50-298 limits assumed): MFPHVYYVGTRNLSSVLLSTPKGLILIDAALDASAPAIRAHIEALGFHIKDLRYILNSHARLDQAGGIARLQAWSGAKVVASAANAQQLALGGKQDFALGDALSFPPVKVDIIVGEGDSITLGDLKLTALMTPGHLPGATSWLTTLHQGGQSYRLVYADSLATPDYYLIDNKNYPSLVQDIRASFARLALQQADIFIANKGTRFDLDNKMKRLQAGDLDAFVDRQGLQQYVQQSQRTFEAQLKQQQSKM
compound,measurement,setting,value
"O=C(O)[C@H]1/C(=C/CO)O[C@@H]2CC(=O)N21 [CA, clavulanic acid]",Ki,[1],201 µM
same,Ki,[2],290 µM
